Measured values taken from patent EP4559912A1, “SULFUR-CONTAINING HETEROAROMATIC RING COMPOUND, PHARMACEUTICAL COMPOSITION THEREOF, AND USE THEREOF” (Evopoint Biosciences Co., Ltd., priority 2022, dated 2024).

Molecular target: His-GST tagged PARG (Homo sapiens, UniProt Q86W56)
Assay: In vitro PARG assay (TR-FRET)
Format: biochemical
Conditions: 4 pM His-GST tagged PARG, 30 nM Bio PARylated PARP1 substrate, 20 min at room temperature, TR-FRET Em 665/Em 615
Protocol: The in vitro PARG assay experiment was conducted in a standard 384-well plate with a total volume of 15 µL. To a 384-well plate containing the test compound was added 5 µL of an enzyme reaction mixture (50 mM Tris-HCL pH 7.5, 50 mM KCL, 0.01% Triton X-100, 0.01% BSA, and 4 pM His-GST tagged PARG). The plate was incubated at room temperature for 10 min, and then 5 µL of a substrate mixture (50 mM Tris-HCL pH 7.5, 50 mM KCL, 0.01% Triton X-100, 0.01% BSA, and 30 nM Bio PARylated PARP1) was added to initiate the reaction. The plate was further incubated at room temperature for 20 min, and then 5 µL of a detection reagent was added to terminate the reaction. The detection reagent was prepared from a buffer (50 mM Tris-HCl pH 7.5, 50 mM KCL, 0.01% Triton X-100, and 0.01% BSA), 3 µM compound PDD00017273, 1.5× Mab anti-6HIS XL665 (Cisbio: 61HISXLA), and 1.5× streptavidin terbium cryptate (Cisbio: 610SATLA). The final concentrations of the compound PDD00017273, the 1.5× Mab anti-6HIS XL665 (Cisbio: 61HISXLA), and the 1.5× streptavidin terbium cryptate were 1 µM, 0.5×, and 0.5×, respectively. After incubation in the dark at room temperature for 120 min, TR-FRET signals were measured at Ex 340, Em 665, and Em 615. The ratio for each well was calculated as Em 665/Em 615 (the ratio here corresponds to the ratio of fluorescence signals at the wavelengths).

His-GST tagged PARG, sequence (Q86W56 whole entry): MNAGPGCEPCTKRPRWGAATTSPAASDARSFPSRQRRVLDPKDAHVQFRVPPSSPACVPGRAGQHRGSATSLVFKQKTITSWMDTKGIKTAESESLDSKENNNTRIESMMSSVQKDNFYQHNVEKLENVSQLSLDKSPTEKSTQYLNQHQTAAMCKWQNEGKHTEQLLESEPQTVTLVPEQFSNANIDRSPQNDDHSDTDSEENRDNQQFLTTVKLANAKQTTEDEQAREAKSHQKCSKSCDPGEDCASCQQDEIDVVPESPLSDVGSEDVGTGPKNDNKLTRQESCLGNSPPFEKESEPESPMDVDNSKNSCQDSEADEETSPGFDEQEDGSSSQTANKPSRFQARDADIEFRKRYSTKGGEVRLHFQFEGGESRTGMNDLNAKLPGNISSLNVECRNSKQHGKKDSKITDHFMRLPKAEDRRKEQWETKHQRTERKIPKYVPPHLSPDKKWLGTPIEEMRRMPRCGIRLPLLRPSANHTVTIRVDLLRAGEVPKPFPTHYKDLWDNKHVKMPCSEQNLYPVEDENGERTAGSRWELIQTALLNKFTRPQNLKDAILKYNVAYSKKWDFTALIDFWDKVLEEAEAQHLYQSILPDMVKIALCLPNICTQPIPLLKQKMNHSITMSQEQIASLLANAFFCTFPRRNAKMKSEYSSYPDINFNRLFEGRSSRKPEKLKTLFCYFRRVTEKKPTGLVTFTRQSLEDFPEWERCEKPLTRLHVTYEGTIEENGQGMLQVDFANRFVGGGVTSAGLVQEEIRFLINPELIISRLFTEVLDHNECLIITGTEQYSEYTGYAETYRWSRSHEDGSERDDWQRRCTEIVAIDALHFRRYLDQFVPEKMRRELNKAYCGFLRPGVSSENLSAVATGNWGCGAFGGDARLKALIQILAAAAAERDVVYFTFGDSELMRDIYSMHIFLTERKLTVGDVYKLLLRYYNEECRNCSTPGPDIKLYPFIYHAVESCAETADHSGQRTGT

SMILES | IC50 [µM]
CO[C@H](C)C(=O)N1CCN(c2cc(S(=O)(=O)NC3(C#N)CC3)cc3c2cnn3-c2nnc(C(F)F)s2)C[C@H]1C [EVO29409] | < 0.1
CCOC(C)(C)C(=O)N1CCN(c2cc(S(=O)(=O)NC3(C)CC3)cc3c2cnn3-c2nnc(C(F)F)s2)C[C@H]1C [EVO29507] | < 0.1
CC(C)(C)[C@@H](O)C(=O)N1CCN(c2cc(S(=O)(=O)NC3(C#N)CC3)cc3c2cnn3-c2nnc(C(F)F)s2)C[C@H]1CF [EVO29778] | < 0.1
C[C@@H]1CN(c2cc(S(=O)(=O)NC3(C#N)CC3)cc3c2cnn3-c2nnc(C(F)F)s2)CCN1C(=O)[C@@H](C)O [EVO29285] | < 0.1
Cc1nnc(-n2ncc3c(N4CCN(C(=O)[C@@H](C)O)[C@H](C)C4)cc(S(=O)(=O)NC4(C#N)CC4)cc32)s1 [EVO29336] | < 0.1
C[C@@H]1CN(c2cc(S(=O)(=O)NC3(C#N)CC3)cc3c2cnn3-c2nnc(C(F)F)s2)CCN1C(=O)C(O)C(C)(C)C(F)F (single isomer, unassigned) [EVO29752P2] | < 0.1
C[C@@H]1CN(c2cc(S(=O)(=O)NC3(C#N)CC3)cc3c2cnn3-c2nnc(C(F)F)s2)CCN1C(=O)[C@H](O)C(C)(C)C [EVO29451] | < 0.1
CO[C@@H](C(=O)N1CCN(c2cc(S(=O)(=O)NC3(C#N)CC3)cc3c2cnn3-c2nnc(C(F)F)s2)C[C@H]1C)C(C)(C)C [EVO29736] | < 0.1
CO[C@@H](C(=O)N1CCN(c2cc(S(=O)(=O)NC3(C#N)CC3)cc3c2cnn3-c2nnc(C(F)F)s2)C[C@H]1C)C(C)C [EVO29418] | < 0.1
C[C@@H]1CN(c2cc(S(=O)(=O)NC3(C#N)CC3)cc3c2cnn3-c2nnc(C(F)F)s2)CCN1C(=O)C(O)C(C)(C)CO (single isomer, unassigned) [EVO29790P2] | < 0.1
C[C@@H]1CN(c2cc(S(=O)(=O)NC3(C#N)CC3)cc3c2cnn3-c2nnc(C(F)F)s2)CCN1C(=O)C(=O)C(C)(C)C [EVO29405] | < 0.1
C[C@@H]1CN(c2c(F)c(S(=O)(=O)NC3(C#N)CC3)cc3c2c(F)nn3-c2nnc(C(F)F)s2)CCN1C(=O)[C@H](O)C(C)(C)C [EVO29792] | 0.1 to 0.5
C[C@@H](O)C(=O)N1CCN(c2cc(S(=O)(=O)NC3(C#N)CC3)cc3c2cnn3-c2nnc(C(F)F)s2)CC1 [EVO29284] | < 0.1
CC(C)C(=O)C(=O)N1CCN(c2cc(S(=O)(=O)NC3(C#N)CC3)cc3c2cnn3-c2nnc(C(F)F)s2)CC1 [EVO29417] | < 0.1
C[C@@H]1CN(c2cc(S(=O)(=O)NC3(C#N)CC3)cc3c2cnn3-c2nnc(C(F)F)s2)CCN1C(=O)C(C)(C)O [EVO29339] | < 0.1
C[C@@H]1CN(c2cc(S(=O)(=O)NC3(C#N)CC3)cc3c2c(F)nn3-c2nnc(C(F)F)s2)CCN1C(=O)[C@@](C)(O)C(F)(F)F [EVO29761] | < 0.1
C[C@@H]1CN(c2cc(S(=O)(=O)NC3(C)CC3)cc3c2c(F)nn3-c2nnc(C(F)F)s2)CCN1C(=O)[C@H](O)C(C)(C)C [EVO29798] | < 0.1
C[C@@H]1CN(c2cc(S(=O)(=O)NC3(C#N)CC3)cc3c2cnn3-c2nnc(C(F)F)s2)CCN1C(=O)C(O)C1CC1 (single isomer, unassigned) [EVO29534] | < 0.1
C[C@@H]1CN(c2cc(S(=O)(=O)NC3(C)CC3)cc3c2cnn3-c2nnc(C(F)F)s2)CCN1C(=O)C(=O)C1CC1 [EVO29387] | < 0.1
COC(C)(C)C(=O)N1CCN(c2cc(S(=O)(=O)NC3(C#N)CC3)cc3c2cnn3-c2nnc(C(F)F)s2)C[C@H]1C [EVO29426] | < 0.1
C[C@@H]1CN(c2cc(S(=O)(=O)NC3(C#N)CC3)cc3c2cnn3-c2nnc(C(F)F)s2)CCN1C(=O)C(=O)C1CC1 [EVO29386] | 0.1 to 0.5
CC(C)C(=O)C(=O)N1CCN(c2cc(S(=O)(=O)NC3(C#N)CC3)cc3c2cnn3-c2nnc(C(F)F)s2)C[C@H]1C [EVO29291] | < 0.1

SMILES | IC50 [µM]
CO[C@H](C)C(=O)N1CCN(c2cc(S(=O)(=O)NC3(C#N)CC3)cc3c2cnn3-c2nnc(C)s2)C[C@H]1C [EVO29411] | < 0.1
C[C@@H]1CN(c2cc(S(=O)(=O)NC3(C)CC3)cc3c2cnn3-c2nnc(C(F)F)s2)CCN1C(=O)C(=O)C(C)(C)C [EVO29406] | < 0.1
Cc1nnc(-n2ncc3c(N4CCN(C(=O)C(=O)C(C)C)[C@H](C)C4)cc(S(=O)(=O)NC4(C#N)CC4)cc32)s1 [EVO29385] | < 0.1
CC(C)[C@@H](O)C(=O)N1CCN(c2cc(S(=O)(=O)NC3(C#N)CC3)cc3c2cnn3-c2nnc(C(F)F)s2)C[C@H]1C [EVO29335] | < 0.1
C[C@@H]1CN(c2cc(S(=O)(=O)NC3(C#N)CC3)cc3c2cnn3-c2nnc(C(F)F)s2)CCN1C(=O)C(O)C(C)(C)CF (single isomer, unassigned) [EVO29751P1] | < 0.1
CO[C@H](C)C(=O)N1CCN(c2cc(S(=O)(=O)NC3(C)CC3)cc3c2cnn3-c2nnc(C(F)F)s2)C[C@H]1C [EVO29410] | < 0.1
C[C@@H]1CN(c2cc(S(=O)(=O)NC3(C#N)CC3)cc3c2ccn3-c2nnc(C(F)F)s2)CCN1C(=O)[C@H](O)C(C)(C)C [EVO29788] | < 0.1
Cc1nnc(-n2ncc3c(N4CCN(C(=O)C(=O)C(C)C)[C@H](C)C4)cc(S(=O)(=O)NC4(C)CC4)cc32)s1 [EVO29384] | < 0.1
C[C@@H]1CN(c2cc(S(=O)(=O)NC3(C#N)CC3)cc3c2c(F)nn3-c2nnc(C(F)F)s2)CCN1C(=O)[C@H](O)C(C)(C)C [EVO29757] | < 0.1
CC(=O)C(=O)N1CCN(c2cc(S(=O)(=O)NC3(C)CC3)cc3c2cnn3-c2nnc(C(F)F)s2)C[C@H]1C [EVO29388] | < 0.1
CCOC(C(=O)N1CCN(c2cc(S(=O)(=O)NC3(C#N)CC3)cc3c2cnn3-c2nnc(C(F)F)s2)C[C@H]1C)C1CC1 (single isomer, unassigned) [EVO29710P1] | < 0.1
CO[C@@H](C(=O)N1CCN(c2cc(S(=O)(=O)NC3(C#N)CC3)cc3c2cnn3-c2nnc(C)s2)C[C@H]1C)C(C)C [EVO29420] | < 0.1
Cc1nnc(-n2ncc3c(N4CCN(C(=O)[C@@H](N)CO)[C@H](C)C4)cc(S(=O)(=O)NC4(C)CC4)cc32)s1 [EVO29314] | 0.1 to 0.5
CCOC(C(=O)N1CCN(c2cc(S(=O)(=O)NC3(C#N)CC3)cc3c2cnn3-c2nnc(C(F)F)s2)C[C@H]1C)C1CC1 (single isomer, unassigned) [EVO29710P2] | < 0.1
C[C@@H]1CN(c2cc(S(=O)(=O)NC3(C#N)CC3)cc3c2cnn3-c2nnc(C(F)F)s2)CCN1C(=O)[C@@](C)(O)C(F)(F)F [EVO29463] | < 0.1
COC(C)(C)C(=O)N1CCN(c2cc(S(=O)(=O)NC3(C)CC3)cc3c2cnn3-c2nnc(C(F)F)s2)C[C@H]1C [EVO29503] | < 0.1
C[C@@H]1CN(c2cc(S(=O)(=O)NC3(C)CC3)cc3c2cnn3-c2nnc(C(F)F)s2)CCN1C(=O)C(C)(C)O [EVO29469] | < 0.1
C[C@@H]1CN(c2cc(S(=O)(=O)NC3(C#N)CC3)cc3c2cnn3-c2nnc(C(F)F)s2)CCN1C(=O)C(O)C(C)(C)CO (single isomer, unassigned) [EVO29790P1] | < 0.1
N#CC1(NS(=O)(=O)c2cc(N3CCN(C(=O)CO)CC3)c3cnn(-c4nnc(C(F)F)s4)c3c2)CC1 [EVO29103] | < 0.1
C[C@@H]1CN(c2cc(S(=O)(=O)NC3(C#N)CC3)cc3c2cnn3-c2nnc(C(F)F)s2)CCN1C(=O)C(O)C(C)(C)C(F)F (single isomer, unassigned) [EVO29752P1] | < 0.1
Cc1nnc(-n2ncc3c(N4CCN(C(=O)C(=O)C(C)(C)C)[C@H](C)C4)cc(S(=O)(=O)NC4(C)CC4)cc32)s1 [EVO29408] | < 0.1
